Assays:
[1] = tested on: HT29 cells; test: Inhibition of necroptosis of HT29 cells (CTG method); format: cell-based; settings: Homo sapiens, HT-29, TZA mixture (TNFα, Z-VAD-FMK, AT-406) 24 h, CellTiter-Glo, read-out: IC50, inhibitory effect on necroptosis of HT29 cells
Description: Test Example 1: Inhibitory Effects of Compounds of the Present Disclosure on Necroptosis of HT29 Cells
The CTG method was used for detecting the inhibitory effects of the compounds of the present disclosure on the necroptosis of HT29 cells. The specific procedures are as follows:
HT29 cells were purchased from American Type Culture Collection (ATCC, HTB-38) and cultured with a McCoy's 5A medium (10% FBS) in a 37° C. incubator with 5% carbon dioxide. The cell culture density was maintained at 2×10^4 to 8×10^4 cells/cm^2, and the cells were passaged 2-3 times a week.
• a. Test compounds were dissolved in DMSO to 2 mM. • b. The compounds were 3-fold diluted from an initial concentration of 2 mM to 10 gradient concentrations. • c. All concentrations of compounds were 100-fold diluted with the culture medium for later use.
• a. The cells were counted, and the cell density was adjusted to 1×10^5 cells/mL with a fresh culture medium. • b. The cells were seeded in a 96-well plate at 80 µL/well and cultured at 37° C. overnight. • c. […] After the culture plate was left to stand at room temperature for 0.5 h, a stable luminescence signal was obtained, and then the plate was read using a microplate reader. • g. The IC50 values of the compounds of the present disclosure were calculated by the Graphpad software.

[2] = biological target: RIPK1 kinase (Homo sapiens (Human), UniProt Q13546); test: RIPK1 kinase inhibition (ADP-Glo method); format: biochemical; settings: ATP and MBP substrate, 90 min, read-out: IC50, inhibitory activity against RIPK1 kinase
Text: Test Example 2: Inhibitory Activities of Compounds of the Present Disclosure Against RIPK1 Kinase (ADP-Glo Method)
The ADP GLO method was used for detecting the inhibitory activities of the compounds of the present disclosure against RIPK1 kinase. The method is specifically as follows:
• 1) RIPK1 kinase reaction system (containing RIPK1 kinase, MBP, 5× reaction buffer, MnCl2 and DTT) (Promega, VA7592) • 2) ADP-Glo kinase detection kit (containing ADP-Glo reagent and kinase detection reagents) (Promega, V9101) • 3) ATP solution (10 mM) (Thermofisher PV3227) • 4) 96-well small-volume white plate (Cisbio, 66PL96100) • 5) PHERA star microplate reader (BMG labtech)
• a. Reaction buffer: a reaction buffer containing DTT at a final concentration of 50 μM and MnCl2 at a final concentration of 4 mM was prepared using 5× reaction buffer; • b. RIPK1 kinase solution: a RIPK1 kinase solution at a final concentration of 10 ng/μL was prepared using the reaction buffer; • c. […]
• a. […] The plate was read using the PHERA star microplate reader, and relative luminescence unit (RLU) values were recorded. • g. Plotting was performed using the Graphpad software, and the IC50 values of the compounds of the present disclosure were calculated.

[3] = Pharmacokinetic evaluation in beagles after intragastric administration; format: in vivo; settings: both sexes, beagle, dog, plasma, po, 2 mg/kg
Description: Test Example 3: Pharmacokinetic Evaluation of Compound of the Present Disclosure in Dogs
Beagles were used as test animals. Plasma concentrations of the compound of Example 2 at different time points after intragastric administration of Example 2 compound to beagles were determined using an LC/MS/MS method. The pharmacokinetic performance of the compound of the present disclosure was studied in beagles and its pharmacokinetic profile was evaluated.
Eight beagles were provided by Jiangsu Johnbio Biotechnology Co., Ltd., with an equal number of males and females. The production license number was SCXK (Jiangsu) 2018-0005.
A certain amount of the compound of Example 2 was weighed out, and 5% DMSO+30% PG+30% PEG400+35% normal saline were added to prepare a 0.4 mg/mL clear solution.
The compound of Example 2 was administered at a dose of 2 mg/kg with a volume of 5 mL/kg.
The compound of Example 2 was intragastrically administered to the beagles. 0.5 mL of blood samples were collected from the forelimb vein 0 h before administration and 15 min, 30 min, 1.0 h, 2.0 h, 4.0 h, 6.0 h, 8.0 h, 11.0 h, and 24.0 h after administration. The blood samples were placed into EDTA-K2 anticoagulation test tubes and centrifuged at 10,000 rpm for 2 min (4° C.), and plasma was separated within 1 h and stored in a −80° C. refrigerator/dry ice before analysis. Two hours after administration, feeding was resumed.
After the administration of the compound of Example 2, the plasma concentrations of the compound of Example 2 in the beagles were determined: 50 μL of the beagle plasma at each time point after the administration was taken, and 25 μL of internal standard solution ([…] camptothecin) and 450 μL of acetonitrile were added, and the mixture was vortexed and centrifuged at 3700 rpm for 10 min. 0.5 μL of supernatant was collected for LC/MS/MS analysis.

RIPK1 kinase, sequence (Q13546 1-327): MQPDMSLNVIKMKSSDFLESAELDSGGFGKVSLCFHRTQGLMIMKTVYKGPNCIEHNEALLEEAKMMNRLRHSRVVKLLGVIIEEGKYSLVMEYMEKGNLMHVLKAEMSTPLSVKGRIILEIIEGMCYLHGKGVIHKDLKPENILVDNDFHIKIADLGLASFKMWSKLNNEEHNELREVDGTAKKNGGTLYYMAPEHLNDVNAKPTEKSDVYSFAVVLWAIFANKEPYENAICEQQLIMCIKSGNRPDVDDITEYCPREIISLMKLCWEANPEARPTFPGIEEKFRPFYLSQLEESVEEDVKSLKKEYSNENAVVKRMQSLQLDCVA

## Nc1nc2cc(-c3ccc4c(c3)C(=O)N(Cc3cc(OC(F)(F)F)ccc3F)CCO4)ccn2n1 [Example 1, 7-(2-Amino-[1,2,4]triazolo[1,5-a]pyridin-7-yl)-4-(2-fluoro-5-(trifluoromethoxy)benzyl)-3,4-dihydrobenzo[f][1,4]oxazepin-5(2H)-one]
[1]
  IC50: 13.3 nM
[2]
  IC50: 23 nM

## Nc1nc2cc(-c3ccc4c(c3)C(=O)N(Cc3cc(OC(F)(F)F)ccc3F)CCC4)ccn2n1 [Example 2, 8-(2-Amino-[1,2,4]triazolo[1,5-a]pyridin-7-yl)-2-(2-fluoro-5-(trifluoromethoxy)benzyl)-2,3,4,5-tetrahydro-1H-benzo[c]azepin-1-one]
[1]
  IC50: 1.5 nM
[2]
  IC50: 2.7 nM
[3]; read-out: Apparent volume of distribution Vz/F
  Vd/F: 0.49 L/kg
[3]; read-out: Area under curve AUC0-t
  AUC(0-t): 51600 ng·h/mL
[3]; read-out: Clearance rate CL/F
  CL/F: 0.48 mL/min/kg
[3]; read-out: Half-life T1/2 (converted)
  half-life: 12.5 h
[3]; read-out: Plasma concentration Cmax
  Cmax: 2940 ng/mL
[3]; read-out: Residence time MRT
  MRT: 19.4 h

Reference: patent US20250197390A1, “FUSED HETEROCYCLIC COMPOUND, AND PREPARATION METHOD THEREFOR AND MEDICAL USE THEREOF” (Jiangsu Hengrui Pharmaceuticals Co., Ltd., priority 2022, published 2025)
